Experimental data: patent publication US20120077863A1, “GUANIDINO-SUBSTITUTED BI-AND POLYPHENYLS AS SMALL MOLECULE CARRIERS” (UCL Business PLC, priority 2009, published 2012)

Target: GAPD siRNA
Test: Isothermal calorimetry (ITC) binding of SMOC to siRNA
Conditions: 6G-SMOC 250 μM in syringe, siRNA 3.5 μM in cell, FIG. 2
Method: An isothermal calorimetry experiment (ITC) was carried out to analyse the strength of the binding between the 6G-SMOG compound shown below and siRNA targeted to the […].
6G-SMOC at a concentration of 250 μM was loaded into the syringe of a Microcal VP-ITC calorimeter (450 μl), and the cell (1.8 ml) filled with GAPD siRNA (Dharmacon RNAi Technologies) at a concentration of 3.5 μM. A total of 37 injections of 8 μl each were made at 4 minute intervals to ensure total saturation of the siRNA. The binding curve was plotted using Origin 6.0 (Microcal) and the binding constants calculated.

Kd: ~80 µM
Compound: N=C(N)NCCOc1cccc(-c2ccc(-c3cccc(OCCNC(=N)N)c3OCCNC(=N)N)c(OCCNC(=N)N)c2OCCNC(=N)N)c1OCCNC(=N)N [6G-SMOC]
